Experimental data reported in patent publication US20230295201A1 (Gilead Sciences, Inc., priority 2020, published 2023).
pEC50: −log10 of the molar value. Like-named read-outs stand apart in the source and are kept apart here.

Tests used:
Type in all cases: cell-based
[1] = test system: RSV strain A2; assay: RSV HEp-2 EC50 (infectious cytopathic cell protection assay); conditions: read-out: RSV HEp-2 EC50
Method in brief: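 Percent inhibition of RSV-induced cytopathic effect came from remaining cell viability (CellTiter-Glo luminescence) after 4 days at 37° C. Compounds in 3-fold serial dilutions were exposed to an infectious mix of titered A2 virus and HEp-2 cells at 50,000/ml, with 0% and 100% inhibition control standards.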

[2] = test system: HRV16; assay: HRV16 HELA EC50 (cytopathic effect in H1-HeLa cells)
Method in brief: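 Read-out is luminescent cell viability (CellTiter-Glo) after 96 h of infection at 33 °C, scaled between uninfected and infected-untreated wells. Before infection with titrated virus, compounds went onto H1-HeLa cells as triplicate 3-fold dilution series.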

[3] = test system: DENV2 replicon; assay: DENV-2 Huh-7 Rep EC50 (replicon luminescence); conditions: read-out: DENV-2 Huh-7 Rep EC50
Method in brief: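 EC50 derived from luminescence dose-response, normalised to DMSO-only 0% inhibition wells, after 1.5 h with EnduRen substrate. Compounds were first exposed for 48 h at 37° C to DENV2 replicon Huh-7 cells (5,000/well).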

[4] = test system: RSV A2; assay: RSV NHBE EC50 (RSV A2 antiviral assay in normal human bronchial epithelial cells); conditions: read-out: RSV NHBE EC50
[5] = Dengue virus, DENV2, Huh-7, 48 h
[6] = human respiratory syncytial virus, HEp-2, 96 h, HEp-2 cells, RSV A2, 4 days
[7] = 96 h, H1-HeLa cells, 33° C., read-out: HRV16 HELA EC50
[8] = Dengue virus, DENV2, Huh-7, 48 h, Huh-7 replicon cells, 48 hours
[9] = human respiratory syncytial virus, NHBE, 96 h, NHBE cells, RSV A2, 4 days
[10] = H1-HeLa cells, 96 h, 33° C.; read-out: HRV16 HELA EC50
[11] = human respiratory syncytial virus, 96 h, HEp-2 cells, RSV A2, 4 days
[12] = human respiratory syncytial virus, 96 h, NHBE cells, RSV A2, 4 days

| Structure (SMILES) | pEC50 [3, 5] | pEC50 [1, 6] | pEC50 [2, 7] | pEC50 [3, 8] | pEC50 [4, 9] | pEC50 [2, 10] | further results |
| --- | --- | --- | --- | --- | --- | --- | --- |
| CCOC(=O)c1ccccc1OP(=O)(OC[C@@]1(C#N)O[C@@H](c2ccc3c(N)ncnn23)[C@H](O)[C@@H]1O)Oc1ccccc1C(=O)OCC [Example 209, ((2R,3S,4R,5S)-5-(4-aminopyrrolo[2,1-f][1,2,4]triazin-7-yl)-2-cyano-3,4-dihydroxytetrahydrofuran-2-yl)methyl bis-2-ethylbenzoate phosphate] | < 4.30 |  |  |  |  |  | pEC50 ([1]; human respiratory syncytial virus, HEp-2, 96 h): 5.83; pEC50 ([2]; 96 h, read-out: HRV16 HELA EC50): 4.78; pEC50 ([4]; human respiratory syncytial virus, NHBE, 96 h): < 5.30 |
| C[C@H](NP(=O)(OC[C@@]1(C#N)O[C@@H](c2ccc3c(N)ncnn23)[C@H](O)[C@@H]1O)Oc1ccccc1)C(=O)OC1CCCC(C)(C)C1 (mixture of isomers) [Example 154, 3,3-dimethylcyclohexyl ((((2R,3S,4R,5S)-5-(4-aminopyrrolo[2,1-f][1,2,4]triazin-7-yl)-2-cyano-3,4-dihydroxytetrahydrofuran-2-yl)methoxy)(phenoxy)phosphoryl)-L-alaninate] |  | 5.57 | 5.71 | 4.29 | 6.51 |  |  |
| CC[C@H](N[P@@](=O)(OC[C@@]1(C#N)O[C@@H](c2ccc3c(N)ncnn23)[C@H](O)[C@@H]1O)Oc1ccccc1)C(=O)OC1CCCCC1 [Example 104] |  |  |  |  |  | 5.74 | pEC50 ([1]; HEp-2 cells, RSV A2, 4 days): 6.10; pEC50 ([3]; Huh-7 replicon cells, 48 hours): < 4.30; pEC50 ([4]; NHBE cells, RSV A2, 4 days): 6.43 |
| C[C@H](NP(=O)(OC[C@@]1(C#N)O[C@@H](c2ccc3c(N)ncnn23)[C@H](O)[C@@H]1O)Oc1ccccc1)C(=O)OCC1CCN(CC(F)(F)F)CC1 (stereo partly drawn) [Example 31, (1-(2,2,2-trifluoroethyl)piperidin-4-yl)methyl ((((2R,3S,4R,5S)-5-(4-aminopyrrolo[2,1-f][1,2,4]triazin-7-yl)-2-cyano3,4-dihydroxytetrahydrofuran-2-yl)methoxy)(phenoxy)phosphoryl)alaninate] |  | 6.48 | 5.60 | 4.02 | 6.59 |  |  |
| CCC(CC)COC(=O)[C@H](C)N[P@@](=O)(OC[C@@]1(C#N)O[C@@H](c2ccc3c(N)ncnn23)[C@H](O)[C@@H]1O)Oc1ccccc1 (single isomer, unassigned) [Example 207] |  | 6.91 | 6.74 | 5.32 | 7.04 |  |  |
| C[C@H](NP(=O)(OC[C@@]1(C#N)O[C@@H](c2ccc3c(N)ncnn23)[C@H](O)[C@@H]1O)Oc1ccccc1)C(=O)OC1CCNCC1 (mixture of isomers) [Example 145, (2S)-piperidin-4-yl 2-(((((2R,3S,4R,5S)-5-(4-aminopyrrolo[2,1-f][1,2,4]triazin-7-yl)-2-cyano-3,4-dihydroxytetrahydrofuran-2-yl)methoxy)(phenoxy)phosphoryl)amino)propanoate] |  | 5.54 | 4.34 | < 4.00 | < 5.30 |  |  |
| CC(C)OC(=O)C1(NP(=O)(OC[C@@]2(C#N)O[C@@H](c3ccc4c(N)ncnn34)[C@H](O)[C@@H]2O)Oc2ccccc2)CCC1 (mixture of isomers) [Example 95, isopropyl 1-(((((2R,3S,4R,5S)-5-(4-aminopyrrolo[2,1-f][1,2,4]triazin-7-yl)-2-cyano-3,4-dihydroxytetrahydrofuran-2-yl)methoxy)(phenoxy)phosphoryl)amino)cyclobutanecarboxylate] |  | 4.82 | < 4.37 | < 4.30 | < 5.30 |  |  |
| CC(=O)N1CC[C@@H](OC(=O)[C@H](C)NP(=O)(OC[C@@]2(C#N)O[C@@H](c3ccc4c(N)ncnn34)[C@H](O)[C@@H]2O)Oc2ccccc2)C1 (stereo partly drawn) [Example 146, (2S)—(R)-1-acetylpyrrolidin-3-yl 2-(((((2R,3S,4R,5S)-5-(4-aminopyrrolo[2,1-f][1,2,4]triazin-7-yl)-2-cyano-3,4-dihydroxytetrahydrofuran-2-yl)methoxy)(phenoxy)phosphoryl)amino)propanoate] |  | 5.01 | < 4.30 | < 4.30 | < 5.30 |  |  |
| CCCCCOC(=O)C[C@H](NP(=O)(OC[C@@]1(C#N)O[C@@H](c2ccc3c(N)ncnn23)[C@H](O)[C@@H]1O)Oc1ccccc1)C(=O)OCCCCC (stereo partly drawn) [Example 215, Dipentyl ((((2R,3S,4R,5S)-5-(4-aminopyrrolo[2,1-f][1,2,4]triazin-7-yl)-2-cyano-3,4-dihydroxytetrahydrofuran-2-yl)methoxy)(phenoxy)phosphoryl)-L-aspartate] |  | 5.96 | 5.47 | 4.35 | < 5.52 |  |  |
| COCCOP(=O)(N[C@@H](C)C(=O)OC(C)C)OC[C@@]1(C#N)O[C@@H](c2ccc3c(N)ncnn23)[C@H](O)[C@@H]1O (stereo partly drawn) [Example 41, isopropyl ((((2R,3S,4R,5S)-5-(4-aminopyrrolo[2,1-f][1,2,4]triazin-7-yl)-2-cyano-3,4-dihydroxytetrahydrofuran-2-yl)methoxy)(2-methoxyethoxy)phosphoryl)-L-alaninate] | < 4.30 |  |  |  |  | < 4.30 | pEC50 [1, 11]: < 4.30; pEC50 [4, 12]: ≤ 5.30 |
| C[C@H](NP(=O)(N[C@@H](C)C(=O)OCC(C)(C)C)OC[C@@]1(C#N)O[C@@H](c2ccc3c(N)ncnn23)[C@H](O)[C@@H]1O)C(=O)OCC(C)(C)C [Example 182] | < 4.30 |  |  |  |  | 5.07 | pEC50 [1, 11]: 5.93; pEC50 [4, 12]: 5.68 |
| CC(C)OC(=O)[C@H](C)NP(=O)(OCCS(C)(=O)=O)OC[C@@]1(C#N)O[C@@H](c2ccc3c(N)ncnn23)[C@H](O)[C@@H]1O (stereo partly drawn) [Example 42, isopropyl ((((2R,3S,4R,5S)-5-(4-aminopyrrolo[2,1-f][1,2,4]triazin-7-yl)-2-cyano-3,4-dihydroxytetrahydrofuran-2-yl)methoxy)(2-(methylsulfonyl)ethoxy)phosphoryl)-L-alaninate] | 4.41 |  |  |  |  | < 4.30 | pEC50 [1, 11]: 4.60; pEC50 [4, 12]: ≤ 5.30 |
| C[C@H](NP(=O)(OCC(F)(F)F)OC[C@@]1(C#N)O[C@@H](c2ccc3c(N)ncnn23)[C@H](O)[C@@H]1O)C(=O)OC1CCCCC1 (stereo partly drawn) [Example 201, cyclohexyl ((((2R,3S,4R,5S)-5-(4-aminopyrrolo[2,1-f][1,2,4]triazin-7-yl)-2-cyano-3,4-dihydroxytetrahydrofuran-2-yl)methoxy)(2,2,2-trifluoroethoxy)phosphoryl)-L-alaninate] | < 4.30 |  |  |  |  | 4.99 | pEC50 [1, 11]: 5.60; pEC50 [4, 12]: 5.51 |
| CCC(CC)OC(=O)[C@H](CC)NP(=O)(OC[C@@]1(C#N)O[C@@H](c2ccc3c(N)ncnn23)[C@H](O)[C@@H]1O)Oc1ccccc1 (mixture of isomers) [Example 115, (2S)-pentan-3-yl 2-(((((2R,3S,4R,5S)-5-(4-aminopyrrolo[2,1-f][1,2,4]triazin-7-yl)-2-cyano-3,4-dihydroxytetrahydrofuran-2-yl)methoxy)(phenoxy)phosphoryl)amino)butanoate] |  | 5.06 | 4.99 | < 4.30 | 5.81 |  |  |
| C[C@H](NP(=O)(N[C@@H](C)C(=O)OCC1CCC1)OC[C@@]1(C#N)O[C@@H](c2ccc3c(N)ncnn23)[C@H](O)[C@@H]1O)C(=O)OCC1CCC1 [Example 36, (2R,3S,4R,5S)-5-(4-aminopyrrolo[2,1-f][1,2,4]triazin-7-yl)-2-cyano-3,4-dihydroxytetrahydrofuran-2-yl)methyl bis-cyclobutylmethyl L-alaninate phosphate] | < 4.30 |  |  |  |  | 4.97 | pEC50 [1, 11]: 5.84; pEC50 [4, 12]: 6.51 |
| C[C@H](NP(=O)(OC[C@@]1(C#N)O[C@@H](c2ccc3c(N)ncnn23)[C@H](O)[C@@H]1O)Oc1ccccc1)C(=O)OC[C@H]1CC[C@H](C(F)(F)F)CC1 (mixture of isomers) [Example 26, ((1r,4S)-4-(trifluoromethyl)cyclohexyl)methyl ((((2R,3S,4R,5S)-5-(4-aminopyrrolo[2,1-f][1,2,4]triazin-7-yl)-2-cyano-3,4-dihydroxytetrahydrofuran-2-yl)methoxy)(phenoxy)phosphoryl)alaninate] |  | 6.48 | 6.17 | 4.35 | 7.60 |  |  |
| C[C@H](NP(=O)(OC[C@@]1(C#N)O[C@@H](c2ccc3c(N)ncnn23)[C@H](O)[C@@H]1O)Oc1ccccc1)C(=O)OC1CCOCC1 (single isomer, unassigned) [Example 57] |  |  |  |  |  | 5.26 | pEC50 ([1]; HEp-2 cells, RSV A2, 4 days): 5.83; pEC50 ([3]; Huh-7 replicon cells, 48 hours): < 4.30; pEC50 ([4]; NHBE cells, RSV A2, 4 days): < 5.38 |
